These results are taken from patent US7384959B2, “Treatment of convulsive states” (priority 1999, dated 2008).

Marks after values point to notes of the source that are not given here.

The subject of series [1] is rat. Description: barbital interaction (sleep induction) test. Type of series: in vivo. The following applies: for NUMBER OF RATS SLEEPING: 10 rats per group; for SLEEP DURATION mean ± s.e.m.: maximum 6 hours after barbital injection. The text has this:
(§1) The following Tables report the results of the Irwin, PTZ and barbital interaction (sleep induction) tests. Description of these tests may be found in Psychopharmacologica, 13:222-257 (1968), Krall et al, Epilepsia 19:409-428 (1978), and Simon et al, J. Pharmacol, Paris 13:241-252 (1982). See also Roux et al, Phoenix international Pharmacology Reports Nos. D30.2061/2 and D99.021/2.
In Table 3, the following apply: Student's t Test: NS=Not Significant; *=p<0.05; **=p<0.01; ***=<0.001 Fisher's Exact Test: (number of rats sleeping) No indication=Not Significant; +=p<0.05; ++=p<0.01; +++=p<0.001 • (#): maximum=6 hours after barbital injection (taken 50 minutes after barbital injection).

Series [2] has as its system attention-deficit hyperactivity disorder (ADHD). The following applies: Patrick et al 1987; cited from earlier work.
For the next series, the system named is patients with epilepsy. The conditions noted are these: ABPI Compendium 1999-2000; cited from earlier work.
For series [3] the following is noted: intravenous administration; Srinivas 1993; cited from earlier work.
The subject of series [4] is rat. Kind of series: Pentylenetetrazole (PTZ) Seizure Test. It counts as in vivo. The conditions noted are these: for NUMBER OF CLONIC CONVULSIONS number of rats / NUMBER OF DEATHS number of rats / NUMBER OF TONIC CONVULSIONS number of rats: 10 rats per group; for NUMBER OF CLONIC CONVULSIONS number of rats / NUMBER OF DEATHS number of rats / NUMBER OF TONIC CONVULSIONS number of rats / NUMBER OF CLONIC CONVULSIONS % antagonism / NUMBER OF DEATHS % antagonism / NUMBER OF TONIC CONVULSIONS % antagonism: observed during 60 minutes.
Text: as §1
Table 2a reports mean results based on animals showing the symptoms (minimum=3 animals). Table 2b reports results observed during 60 minutes. In these Tables: Student's t Test: NS=Not Significant; *=p<0.05; ** p<0.01; ***=p<0.001 Fisher's Exact Test: No indication=Not Significant; **=p<0.01; ***=p<0.001

As for `COC(=O)[C@H](c1ccccc1)[C@H]1CCCCN1` [d-MPH, d-threo-Methylphenidate], the “SLEEP DURATION % change from control” value in the series with rat [1] (0.25 mg/kg s.c. −30 min) was −83%; in the series with rat [1] (0.5 mg/kg s.c. −30 min), −65%; in the series on rat [1] (1 mg/kg s.c. −30 min) it was −97%; with rat [1] (2 mg/kg s.c. −30 min) it was −100%. The “NUMBER OF RATS SLEEPING” value was 6 in the series on rat [1] (0.25 mg/kg s.c. −30 min), 8 in the series with rat [1] (0.5 mg/kg s.c. −30 min), 3 ++ in the series with rat [1] (1 mg/kg s.c. −30 min) and 0 ++ with rat [1] (2 mg/kg s.c. −30 min). The “SLEEP DURATION mean ± s.e.m.” value was 10.5 ± 5.3** min in the series on rat [1] (0.25 mg/kg s.c. −30 min), 21.6 ± 13.5* min in the series on rat [1] (0.5 mg/kg s.c. −30 min), 2.1 ± 1.5*** min with rat [1] (1 mg/kg s.c. −30 min) and 0.0 ± 0.0*** min with rat [1] (2 mg/kg s.c. −30 min). Further, in series [2], the “pharmacological action in the treatment of ADHD” value is reported as “is the property of the d-enantiomer”.

For the molecule `COC(=O)C(c1ccccc1)C1CCCCN1` (racemic) [d,l-MPH, d,l-threo-methylphenidate], the “SLEEP DURATION % change from control” value in the series with rat [1] (0.25 mg/kg s.c. −30 min) is on record as “+51%”; in the series on rat [1] (0.5 mg/kg s.c. −30 min) it was −19%; in the series with rat [1] (1 mg/kg s.c. −30 min) it was −100%; with rat [1] (2 mg/kg s.c. −30 min), −70%; in the series on rat [1] (4 mg/kg s.c. −30 min), −100%. Moreover, the “NUMBER OF RATS SLEEPING” value in the series with rat [1] (0.25 mg/kg s.c. −30 min) was 9; in the series on rat [1] (0.5 mg/kg s.c. −30 min), 8; with rat [1] (1 mg/kg s.c. −30 min), 0 +++; in the series with rat [1] (2 mg/kg s.c. −30 min), 4 +; with rat [1] (4 mg/kg s.c. −30 min), 0 +++. Further, the “SLEEP DURATION mean ± s.e.m.” value in the series on rat [1] (0.25 mg/kg s.c. −30 min) was 94.2 ± 18.3 NS min; in the series on rat [1] (0.5 mg/kg s.c. −30 min) it was 50.2 ± 16.2 NS min; in the series with rat [1] (1 mg/kg s.c. −30 min), 0.0 ± 0.0*** min; in the series with rat [1] (2 mg/kg s.c. −30 min) it was 19.0 ± 12.6 min; in the series on rat [1] (4 mg/kg s.c. −30 min) it was 0.0 ± 0.0*** min. Besides, the “effect on seizure frequency” value in the series with patients with epilepsy is reported as “can cause an increase in seizure frequency in a small number of such patients”. Besides, in series [3], the “time after dosing with similar plasma levels of the two enantiomers” value is given as “around 1.5 hours”.

Consider `Cn1c(=O)c2c(ncn2C)n(C)c1=O` [Caffeine], for which, in the series on rat [1] (16 mg/kg s.c. −30 min), the “SLEEP DURATION % change from control” value was −99%, the “NUMBER OF RATS SLEEPING” value is listed as 1 +++ and the “SLEEP DURATION mean ± s.e.m.” value is reported as 0.5 ± 0.5*** min.

Consider `CN1C(=O)CN=C(c2ccccc2)c2cc(Cl)ccc21` [DIAZEPAM, diazepam, reference compound], for which, in the series with rat [4] (4 mg/kg s.c. −30 min), the “NUMBER OF CLONIC CONVULSIONS number of rats” value was 0+++, the “NUMBER OF DEATHS number of rats” value is listed as 0+++, the “NUMBER OF TONIC CONVULSIONS number of rats” value is 0+++ and the “NUMBER OF CLONIC CONVULSIONS % antagonism” value amounted to 100%. Further, in the series with rat [4] (4 mg/kg s.c. −30 min), the “NUMBER OF DEATHS % antagonism” value came to 100% and the “NUMBER OF TONIC CONVULSIONS % antagonism” value stood at 100%.

Consider `CCOC(=O)c1ncn2c1CN(C)C(=O)c1cc(N=[N+]=[N-])ccc1-2` [RO 15-4513, reference compound], for which, in the series on rat [4] (2 mg/kg s.c. −30 min), the “NUMBER OF CLONIC CONVULSIONS number of rats” value is reported as 10, the “NUMBER OF DEATHS number of rats” value came to 10, the “NUMBER OF TONIC CONVULSIONS number of rats” value was 10 and the “NUMBER OF CLONIC CONVULSIONS % antagonism” value was determined as 0%. In addition, in the series with rat [4] (2 mg/kg s.c. −30 min), the “NUMBER OF DEATHS % antagonism” value is 0% and the “NUMBER OF TONIC CONVULSIONS % antagonism” value is given as 0%. For the same molecule, in the series on rat [4] (2 mg/kg s.c. −30 min, rat), the “LATENCY TO CLONIC CONVULSIONS % change from control” value was −37%, the “LATENCY TO CLONIC CONVULSIONS mean ± s.e.m.” value was 345.0 ± 59.4* sec, the “LATENCY TO DEATHS % change from control” value is on record as −36% and the “LATENCY TO DEATHS mean ± sem.” value is given as 837.0 ± 116.7** sec. In the series with rat [4] (2 mg/kg s.c. −30 min, rat), the “LATENCY TO TONIC CONVULSIONS % change from control” value is −42% and the “LATENCY TO TONIC CONVULSIONS mean ± sem.” value is 681.0 ± 102.6** sec.
